Assay results taken from patent US11000491B2, “Amino-aryl-benzamide compounds and methods of use thereof” (HEPANOVA, INC., priority 2017, dated 2021).
Like-named read-outs stand apart in the source and are kept apart here.

Legend:
Assay type in all cases: cell-based
[1] = tested on: SREBP-2; test: SREBP-2 expression in cultured primary human hepatocytes; settings: procedure of Example 6, read-out: SREBP-2 mRNA inhibition (EC50)
Protocol: (§1) FIG. 9. Effects of HPN-01 on the expression of SREBP-1 (master regulator of hepatic glucose metabolism and fatty acid synthesis) and SREBP-2 (master regulator of cholesterol homeostasis in cells) in cultured primary human hepatocytes.
(§2) Cultured primary human hepatocytes were treated with various concentrations of HPN-01, and the expression levels of SREBP-1 (master regulator of hepatic glucose metabolism and fatty acid synthesis) and SREBP-2 (master regulator of cholesterol homeostasis in cells) were subsequently determined.
(§3) The ability of each HPN-01 derivative obtained from the synthesis methods described above, to inhibit SREBP-1 and SREBP-2 mRNA expression in primary hepatocytes, was tested using the procedure outlined in Example 6. The results of this analysis are shown in Table 6 (third and fourth columns).

[2] = tested on: Huh7 cells; test: LD content in Huh7 cells pre-treated with insulin, Oil-Red-O staining, absorbance OD 540 nm; settings: procedure of Example 3, read-out: LD content inhibition (EC50)
Protocol: FIG. 6. […] Spectrophotometric absorbance of untreated or HPN-01-treated Huh7 cells pre-incubated with 1 mM insulin is shown. LD contents were stained using Oil Red O, and measured by determining spectrophotometer absorbance under OD 540 nm.
Huh7 cells were mock treated or pre-treated with 1 mM insulin, and subsequently treated with indicated amounted of HPN-01.
The ability of each HPN-01 derivative obtained from the synthesis methods described above, to inhibit LD formation in hepatocytes, was tested using the procedure outlined in Example 3. The results of this analysis are shown below in Table 6 (second column).

[3] = tested on: SREBP-1; test: SREBP-1 expression in cultured primary human hepatocytes; settings: procedure of Example 6, read-out: SREBP-1 mRNA inhibition (EC50)
Protocol: as §1, §2, §3

[4] = Homo sapiens, Huh-7, Huh7 cells

Row | SMILES | EC50 ([1]; Homo sapiens, Hepatocyte) | EC50 [2, 4] | EC50 ([3]; Homo sapiens, Hepatocyte) | EC50 [1] | EC50 ([2]; Huh7 cells) | EC50 [3] | EC50 ([1]; Hepatocyte) | EC50 ([3]; Hepatocyte)
1 | CC(C)OC(=O)c1ccc(-c2cc(C(N)=O)c(N)c(-c3ccc(S(N)(=O)=O)cc3)c2)cc1 [HPN-01303, isopropyl 4′-amino-5′-carbamoyl-4″-sulfamoyl-[1,1′:3′,1″-terphenyl]-4-carboxylate] | 10500 nM | 1300 nM | 6620 nM | – | – | – | – | –
2 | CC(=O)Oc1ccc(-c2cc(C(N)=O)c(N)c(-c3ccc(S(N)(=O)=O)cc3)c2)cc1 [HPN-01304, 4′-amino-5′-carbamoyl-4″-sulfamoyl-[1,1′:3′,1″-terphenyl]-4-yl acetate] | 2770 nM | 830 nM | 1540 nM | – | – | – | – | –
3 | CCC(=O)Oc1ccc(-c2cc(C(N)=O)c(N)c(-c3ccc(S(N)(=O)=O)cc3)c2)cc1 [HPN-01305, 4′-amino-5′-carbamoyl-4″-sulfamoyl-[1,1′:3′,1″-terphenyl]-4-yl propionate] | 3900 nM | 820 nM | 1740 nM | – | – | – | – | –
4 | CCCC(=O)Oc1ccc(-c2cc(C(N)=O)c(N)c(-c3ccc(S(N)(=O)=O)cc3)c2)cc1 [HPN-01306, 4′-amino-5′-carbamoyl-4″-sulfamoyl-[1,1′:3′,1″-terphenyl]-4-yl butyrate] | 3260 nM | 1330 nM | 1760 nM | – | – | – | – | –
5 | NC(=O)c1cc(-c2ccc(Cl)nc2)cc(-c2ccc(S(N)(=O)=O)cc2)c1N [HPN-01307, 2-amino-5-(6-chloropyridin-3-yl)-4′-sulfamoyl-[1,1′-biphenyl]-3-carboxamide] | 4590 nM | 1360 nM | 5680 nM | – | – | – | – | –
6 | NC(=O)c1cc(-c2ccc(Cl)cn2)cc(-c2ccc(S(N)(=O)=O)cc2)c1N [HPN-01308, 2-amino-5-(5-chloropyridin-2-yl)-4′-sulfamoyl-[1,1′-biphenyl]-3-carboxamide] | 11200 nM | 1900 nM | 6360 nM | – | – | – | – | –
7 | NC(=O)c1cc(-c2cc(Cl)c[nH]2)cc(-c2ccc(S(N)(=O)=O)cc2)c1N [HPN-01309, 2-amino-5-(4-chloro-1H-pyrrol-2-yl)-4′-sulfamoyl-[1,1′-biphenyl]-3-carboxamide] | 8960 nM | 3500 nM | 8160 nM | – | – | – | – | –
8 | NC(=O)c1cc(-c2c[nH]c(Cl)c2)cc(-c2ccc(S(N)(=O)=O)cc2)c1N [HPN-01310, 2-amino-5-(5-chloro-1H-pyrrol-3-yl)-4′-sulfamoyl-[1,1′-biphenyl]-3-carboxamide] | 23900 nM | 10500 nM | 13000 nM | – | – | – | – | –
9 | NC(=O)c1cc(-c2c[nH]c(Br)c2)cc(-c2ccc(S(N)(=O)=O)cc2)c1N [HPN-01311, 2-amino-5-(5-bromo-1H-pyrrol-3-yl)-4′-sulfamoyl-[1,1′-biphenyl]-3-carboxamide] | 5590 nM | 2020 nM | 3090 nM | – | – | – | – | –
10 | NC(=O)c1cc(Nc2ccc(Cl)cc2)cc(-c2ccc(S(N)(=O)=O)cc2)c1N [HPN-01312, 2-amino-5-((4-chlorophenyl)amino)-4′-sulfamoyl-[1,1′-biphenyl]-3-carboxamide] | 10300 nM | 1450 nM | 7530 nM | – | – | – | – | –
11 | NC(=O)c1cc(Oc2ccc(Cl)cc2)cc(-c2ccc(S(N)(=O)=O)cc2)c1N [HPN-01313, 2-amino-5-(4-chlorophenoxy)-4′-sulfamoyl-[1,1′-biphenyl]-3-carboxamide] | 9410 nM | 1760 nM | 5510 nM | – | – | – | – | –
12 | NC(=O)c1cc(Sc2ccc(Cl)cc2)cc(-c2ccc(S(N)(=O)=O)cc2)c1N [HPN-01314, 2-amino-5-((4-chlorophenyl)thio)-4′-sulfamoyl-[1,1′-biphenyl]-3-carboxamide] | 7710 nM | 1180 nM | 4570 nM | – | – | – | – | –
13 | NC(=O)c1cc(Nc2cccc(Cl)c2)cc(-c2ccc(S(N)(=O)=O)cc2)c1N [HPN-01315, 2-amino-5-((3-chlorophenyl)amino)-4′-sulfamoyl-[1,1′-biphenyl]-3-carboxamide] | 14000 nM | 2610 nM | 7720 nM | – | – | – | – | –
14 | NC(=O)c1cc(Oc2cccc(Cl)c2)cc(-c2ccc(S(N)(=O)=O)cc2)c1N [HPN-01316, 2-amino-5-(3-chlorophenoxy)-4′-sulfamoyl-[1,1′-biphenyl]-3-carboxamide] | 11200 nM | 5920 nM | 8020 nM | – | – | – | – | –
15 | NC(=O)c1cc(Nc2cccc(C(=O)O)c2)cc(-c2ccc(S(N)(=O)=O)cc2)c1N [HPN-01317, 3-((6-amino-5-carbamoyl-4′-sulfamoyl-[1,1′-biphenyl]-3-yl)amino)benzoic acid] | 4320 nM | 580 nM | 3350 nM | – | – | – | – | –
16 | NC(=O)c1cc(Oc2cccc(C(=O)O)c2)cc(-c2ccc(S(N)(=O)=O)cc2)c1N [HPN-01318, 3-((6-amino-5-carbamoyl-4′-sulfamoyl-[1,1′-biphenyl]-3-yl)oxy)benzoic acid] | 1160 nM | 310 nM | 770 nM | – | – | – | – | –
17 | COC(=O)c1cccc(Nc2cc(C(N)=O)c(N)c(-c3ccc(S(N)(=O)=O)cc3)c2)c1 [HPN-01319, methyl 3-((6-amino-5-carbamoyl-4′-sulfamoyl-[1,1′-biphenyl]-3-yl)amino)benzoate] | 3420 nM | 630 nM | 4800 nM | – | – | – | – | –
18 | COC(=O)c1cccc(Oc2cc(C(N)=O)c(N)c(-c3ccc(S(N)(=O)=O)cc3)c2)c1 [HPN-01320, methyl 3-((6-amino-5-carbamoyl-4′-sulfamoyl-[1,1′-biphenyl]-3-yl)oxy)benzoate] | 2160 nM | 690 nM | 1100 nM | – | – | – | – | –
19 | NC(=O)c1cc(C2CCC(Br)C2)cc(-c2ccc(S(N)(=O)=O)cc2)c1N (stereo not drawn) [HPN-01321, 2-amino-5-(3-bromocyclopentyl)-4′-sulfamoyl-[1,1′-biphenyl]-3-carboxamide] | 5310 nM | 1760 nM | 3060 nM | – | – | – | – | –
20 | NC(=O)c1cc(C2CCC(Br)CC2)cc(-c2ccc(S(N)(=O)=O)cc2)c1N (stereo not drawn) [HPN-01322, 2-amino-5-(4-bromocyclohexyl)-4′-sulfamoyl-[1,1′-biphenyl]-3-carboxamide] | 2550 nM | 830 nM | 1620 nM | – | – | – | – | –
21 | NC(=O)c1cc(-c2ccc(Cl)cc2)cc(Nc2ccc(S(N)(=O)=O)cc2)c1N [HPN-01402, 4-amino-4′-chloro-5-((4-sulfamoylphenyl)amino)-[1,1′-biphenyl]-3-carboxamide] | 2500 nM | 600 nM | 1180 nM | – | – | – | – | –
22 | NC(=O)c1cc(-c2ccc(Cl)cc2)cc(Sc2ccc(S(N)(=O)=O)cc2)c1N [HPN-01403] | – | – | – | 3090 nM | 360 nM | 1960 nM | – | –
23 | NC(=O)c1cc(-c2ccc(Br)cc2)cc(Nc2ccc(S(N)(=O)=O)cc2)c1N [HPN-01404, 4-amino-4′-bromo-5-((4-sulfamoylphenyl)amino)-[1,1′-biphenyl]-3-carboxamide] | 3390 nM | 640 nM | 1970 nM | – | – | – | – | –
24 | NC(=O)c1cc(-c2ccc(Cl)cc2)cc(-c2ccc(OP(=O)(O)O)cc2)c1N [HPN-01405, 6′-amino-5′-carbamoyl-4″-chloro-[1,1′:3′,1″-terphenyl]-4-yl dihydrogen phosphate] | – | 760 nM | – | – | – | – | 3980 nM | 2500 nM
25 | CC(=O)Nc1ccc(-c2cc(-c3ccc(Cl)cc3)cc(C(N)=O)c2N)cc1 [HPN-01407, 4″-acetamido-4’-amino-4-chloro-[1,1′:3′,1″-terphenyl]-5′-carboxamide] | 9690 nM | 1070 nM | 5410 nM | – | – | – | – | –
26 | CCC(=O)Nc1ccc(-c2cc(-c3ccc(Cl)cc3)cc(C(N)=O)c2N)cc1 [HPN-01408, 4′-amino-4-chloro-4″-propionamido-[1,1′:3′,1″-terphenyl]-5′-carboxamide] | 4370 nM | 1500 nM | 2550 nM | – | – | – | – | –
27 | CCCC(=O)Nc1ccc(-c2cc(-c3ccc(Cl)cc3)cc(C(N)=O)c2N)cc1 [HPN-01409, 4′-amino-4″-butyramido-4-chloro-[1,1′:3′,1″-terphenyl]-5′-carboxamide] | 1420 nM | 500 nM | 1050 nM | – | – | – | – | –
28 | NC(=O)c1cc(-c2ccc(Cl)cc2)cc(Oc2cccc(-c3nn[nH]n3)c2)c1N [HPN-01410, 5-(3-(2H-tetrazol-5-yl)phenoxy)-4-amino-4′-chloro-[1,1′-biphenyl]-3-carboxamide] | 4080 nM | 580 nM | 2090 nM | – | – | – | – | –
29 | CCCNS(=O)(=O)c1cccc(Oc2cc(-c3ccc(Cl)cc3)cc(C(N)=O)c2N)c1 [HPN-01411, 4-amino-4′-chloro-5-(3-(N-propylsulfamoyl)phenoxy)-[1,1′-biphenyl]-3-carboxamide] | 2840 nM | 940 nM | 1590 nM | – | – | – | – | –
30 | NC(=O)c1cc(-c2ccc(Cl)cc2)cc(Oc2cccc(S(N)(=O)=O)c2)c1N [HPN-01412, 4-amino-4′-chloro-5-(3-sulfamoylphenoxy)-[1,1′-biphenyl]-3-carboxamide] | 6110 nM | 2070 nM | 3090 nM | – | – | – | – | –
